From US8022091B2, “Triazole derivative” (Taisho Pharmaceutical Co., Ltd., priority 2006, dated 2011)
pIC50: −log10 of the molar value. “And” between values parts separate entries of the source, which are not always exact repeats. Equal entries are not always repeated.

What was measured:
[1] = molecular target: T1, human Edg-1 (S1P1) (Homo sapiens, UniProt P21453); experiment: S1P1 binding assay: inhibition of [33P]-S1P binding to membrane fraction of HEK-293 cells transferred with the human Edg-1 (S1P1) gene; settings: for inhibition at 10 µM: test compound at 10 μM, inhibition of [33P]-S1P binding to the membrane fraction of HEK-293 cells expressing human Edg-1 (S1P1); for pIC50: [33P]-S1P 0.1 nM, human Edg-1 (S1P1) HEK-293 membrane fraction, 1 h at 30° C., read-out: IC50 (concentration at which binding in the absence of the test compound was inhibited by 50%)
T1 construct: expressed in transfected cells; host or cells: HEK-293
Outline: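 With 0.1 nM [33P]-S1P and compound (10^−5M single point, or a concentration range for IC50) in 0.1% DMSO, membrane fractions from human Edg-1-expressing HEK-293 cells were treated for one hour at 30° C in 20 mM Tris-HCl pH 7.4 with NaF, deoxypyridoxine and BSA. Bound label was measured after filtration, with untransfected-cell background subtracted.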

T1 sequence (P21453 whole entry): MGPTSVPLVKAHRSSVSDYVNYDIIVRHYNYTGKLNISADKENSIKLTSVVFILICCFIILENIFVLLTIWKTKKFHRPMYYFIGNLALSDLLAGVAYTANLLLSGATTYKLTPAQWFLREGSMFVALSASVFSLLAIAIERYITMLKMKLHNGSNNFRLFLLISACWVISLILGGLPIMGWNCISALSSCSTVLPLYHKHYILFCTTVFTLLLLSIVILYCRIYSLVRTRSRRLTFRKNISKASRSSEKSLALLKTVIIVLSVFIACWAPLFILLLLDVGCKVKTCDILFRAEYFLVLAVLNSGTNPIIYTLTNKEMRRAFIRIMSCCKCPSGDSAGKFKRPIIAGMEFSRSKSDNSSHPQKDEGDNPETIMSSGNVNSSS

Structure (SMILES) | inhibition at 10 µM [1] | melting point | pIC50 [1]
CCn1c(Oc2cc(OC)c(OC)c(OC)c2)nnc1[C@@H](C)NS(=O)(=O)c1ccc(Cl)c(Cl)c1 [Compound 17] | 95.4% | 129.5 to 131.5 °C | 
CCn1c(Oc2cc(C)c(C)c(C)c2)nnc1[C@@H](C)NS(=O)(=O)c1ccc(Cl)c(Cl)c1 [Compound 18] | 102% | 189 to 194 °C | ≥ 7.46
CCn1c(Oc2cc(C)cc(C)c2)nnc1[C@@H](C)NS(=O)(=O)c1ccc(Cl)c(Cl)c1 [Compound 19] | 97.9% | 145 to 150 °C | 
CCn1c(Oc2cc(OC)cc(OC)c2)nnc1[C@@H](C)NS(=O)(=O)c1ccc(Cl)c(Cl)c1 [Compound 20] | 97.4% | 118 to 120 °C | 
CCCCOc1ccc(Oc2nnc([C@@H](C)NS(=O)(=O)c3ccc(Cl)c(Cl)c3)n2CC)cc1 [Compound 21] | 96.7% | 146.5 to 149.5 °C | ≥ 7.46
CCn1c(Oc2ccc(Oc3ccccc3)cc2)nnc1[C@@H](C)NS(=O)(=O)c1ccc(Cl)c(Cl)c1 [Compound 22] | 95.4% | 163 to 167.5 °C | 7.85
CCn1c(Oc2ccc(OCc3ccccc3)cc2)nnc1[C@@H](C)NS(=O)(=O)c1ccc(Cl)c(Cl)c1 [Compound 23] | 96.7% | 173 to 176 °C | ≥ 7.46
CCc1ccc(Oc2nnc([C@@H](C)NS(=O)(=O)c3ccc(Cl)c(Cl)c3)n2CC)cc1 [Compound 24] | 101% | 172.5 to 173 °C | ≥ 8.00
CCCc1ccc(Oc2nnc([C@@H](C)NS(=O)(=O)c3ccc(Cl)c(Cl)c3)n2CC)cc1 [Compound 25] | 97.5% | 155 to 156 °C | ≥ 7.46
CCn1c(Oc2ccc(Cl)c(C)c2)nnc1[C@@H](C)NS(=O)(=O)c1ccc(Cl)c(Cl)c1 [Compound 26] | 97.9% | 159 to 164 °C | ≥ 7.46
CCn1c(Oc2ccc(-n3cccc3)cc2)nnc1[C@@H](C)NS(=O)(=O)c1ccc(Cl)c(Cl)c1 [Compound 27] | 100% | 163 to 168 °C | 
CCn1c(Oc2cccc(N(C)C)c2)nnc1[C@@H](C)NS(=O)(=O)c1ccc(Cl)c(Cl)c1 [Compound 28] | 104% | 165 to 170 °C | 8.51
CCn1c(Oc2ccc(-c3ccccc3)cc2)nnc1[C@@H](C)NS(=O)(=O)c1ccc(Cl)c(Cl)c1 [Compound 29] | 101% | 177 to 178.5 °C | 
CCn1c(Oc2cc(Cl)cc(Cl)c2)nnc1[C@@H](C)NS(=O)(=O)c1ccc(Cl)c(Cl)c1 [Compound 30] | 100% | 212 to 216 °C | 
CCn1c(Oc2ccc(F)c(Cl)c2)nnc1[C@@H](C)NS(=O)(=O)c1ccc(Cl)c(Cl)c1 [Compound 31] | 101% | 143 to 146 °C | 
CCCCc1ccc(Oc2nnc([C@@H](C)NS(=O)(=O)c3ccc(Cl)c(Cl)c3)n2CC)cc1 [Compound 32] | 104% | 147 to 148 °C | ≥ 7.46
CCn1c(Oc2ccc(OC(F)(F)F)cc2)nnc1[C@@H](C)NS(=O)(=O)c1ccc(Cl)c(Cl)c1 [Compound 33] | 101% | 173.5 to 174.5 °C | 
CCn1c(Oc2cccc(N3CCOCC3)c2)nnc1[C@@H](C)NS(=O)(=O)c1ccc(Cl)c(Cl)c1 [Compound 34] | 106% | 192.5 to 195.5 °C | 8.70
CCn1c(Oc2ccc(OCCN(C)C)cc2)nnc1[C@@H](C)NS(=O)(=O)c1ccc(Cl)c(Cl)c1 [Compound 35] | 100% | 156 to 159 °C | ≥ 7.46
CCn1c(Oc2ccc(OCCN3CCOCC3)cc2)nnc1[C@@H](C)NS(=O)(=O)c1ccc(Cl)c(Cl)c1 [Compound 36] | 102% | 125 to 130 °C | 7.76
CCn1c(Oc2ccc(F)c(C)c2)nnc1[C@@H](C)NS(=O)(=O)c1ccc(Cl)c(Cl)c1 [Compound 37] | 100% | 145 to 147 °C | ≥ 7.46
COc1ccc(Oc2nnc([C@@H](C)NS(=O)(=O)c3ccc(Cl)c(Cl)c3)n2C2CC2)cc1 [Compound 38] | 105% | 148.5 to 150 °C | 7.93
CCn1c(Oc2ccc(C(C)C)cc2)nnc1[C@@H](C)NS(=O)(=O)c1ccc(Cl)c(Cl)c1 [Compound 39] | 98.5% | 176 to 178 °C | ≥ 8.00
CCn1c(Oc2cccc(C(C)C)c2)nnc1[C@@H](C)NS(=O)(=O)c1ccc(Cl)c(Cl)c1 [Compound 40] | 106% | 155.5 to 156.5 °C | ≥ 8.00
CCn1c(Oc2cccc3ccccc23)nnc1[C@@H](C)NS(=O)(=O)c1ccc(Cl)c(Cl)c1 [Compound 41] | 92% | 166 to 170 °C | 

Structure (SMILES) | inhibition at 10 µM [1] | melting point | pIC50 [1]
CCn1c(Oc2ccc3ccccc3c2)nnc1[C@@H](C)NS(=O)(=O)c1ccc(Cl)c(Cl)c1 [Compound 42] | 102% | 176.5 to 179.5 °C | 7.66
CCn1c(Oc2ccc(N(C)C)cc2)nnc1[C@@H](C)NS(=O)(=O)c1ccc(Cl)c(Cl)c1 [Compound 43] | 99.8% | 182.5 to 185 °C | ≥ 7.46
CCn1c(Oc2ccc(F)c(F)c2)nnc1[C@@H](C)NS(=O)(=O)c1ccc(Cl)c(Cl)c1 [Compound 44] | 100% | 140 to 145.5 °C | 
CCn1c(Oc2ccc3sc(C)nc3c2)nnc1[C@@H](C)NS(=O)(=O)c1ccc(Cl)c(Cl)c1 [Compound 46] | 94.6% | 247 to 250 °C | ≥ 7.46 and 7.55
CCn1c(Oc2ccc(N3CCOCC3)cc2)nnc1[C@@H](C)NS(=O)(=O)c1ccc(Cl)c(Cl)c1 [Compound 47] | 102% | 191 to 192 °C | 
CCn1c(Oc2ccc(N3CCCCC3)cc2)nnc1[C@@H](C)NS(=O)(=O)c1ccc(Cl)c(Cl)c1 [Compound 48] | 96.7% | 195.5 to 196.5 °C | 
CCn1c(Oc2ccc(N3CCCC3)cc2)nnc1[C@@H](C)NS(=O)(=O)c1ccc(Cl)c(Cl)c1 [Compound 49] | 102% | 198 to 199 °C | 8.22
CCn1c(Oc2cccnc2)nnc1[C@@H](C)NS(=O)(=O)c1ccc(Cl)c(Cl)c1 [Compound 50] | 92.9% | 129 to 130 °C | 
CCn1c(Oc2ccc(C)nc2)nnc1[C@@H](C)NS(=O)(=O)c1ccc(Cl)c(Cl)c1 [Compound 51] | 99.9% | 148.5 to 150.5 °C | 
CCn1c(Oc2ccc(N3CCN(C)CC3)cc2)nnc1[C@@H](C)NS(=O)(=O)c1ccc(Cl)c(Cl)c1 [Compound 52] | 100% | 203 to 205 °C | 
CCn1c(Oc2ccccn2)nnc1[C@@H](C)NS(=O)(=O)c1ccc(Cl)c(Cl)c1 [Compound 53] | 86.8% | 172 to 173 °C | 
CCn1c(Oc2ccc3ccncc3c2)nnc1[C@@H](C)NS(=O)(=O)c1ccc(Cl)c(Cl)c1 [Compound 54] | 104% | 192 to 193 °C | 
Cc1ccc(Oc2nnc([C@@H](C)NS(=O)(=O)c3ccc(Cl)c(Cl)c3)n2C)cc1 [Compound 58] | 99.7% | 181 to 183 °C | 
CCCn1c(Oc2ccc(C)cc2)nnc1[C@@H](C)NS(=O)(=O)c1ccc(Cl)c(Cl)c1 [Compound 59] | 94.3% | 169.5 to 170.5 °C | 
Cc1ccc(Oc2nnc([C@@H](C)NS(=O)(=O)c3ccc(Cl)c(Cl)c3)n2C(C)C)cc1 [Compound 60] | 98.9% | 192.5 to 195 °C | 
CCn1c(Oc2ccc(C)cc2)nnc1[C@H](C)NS(=O)(=O)c1ccc(Cl)c(Cl)c1 [Compound 62] | 83.5% | 186 to 188.5 °C | 
CCn1c(Oc2ccc3[nH]ccc3c2)nnc1[C@@H](C)NS(=O)(=O)c1ccc(Cl)c(Cl)c1 [Compound 63] | 105% | 216.5 to 217.5 °C | 
CCn1c(Oc2ccc3cc[nH]c3c2)nnc1[C@@H](C)NS(=O)(=O)c1ccc(Cl)c(Cl)c1 [Compound 64] | 101% | 223 to 224 °C | ≥ 7.46
CCn1c(Oc2ccc3[nH]c(C)cc3c2)nnc1[C@@H](C)NS(=O)(=O)c1ccc(Cl)c(Cl)c1 [Compound 65] | 105% | 201 to 202 °C | 
CCn1c(Oc2cc(C)ccn2)nnc1[C@@H](C)NS(=O)(=O)c1ccc(Cl)c(Cl)c1 [Compound 66] | 93.4% | 183 to 190 °C | 
CCn1c(Oc2ccc(C)cn2)nnc1[C@@H](C)NS(=O)(=O)c1ccc(Cl)c(Cl)c1 [Compound 67] | 95.5% | 182 to 188 °C | 
CCn1c(Oc2ccc3c(c2)CCC(=O)N3)nnc1[C@@H](C)NS(=O)(=O)c1ccc(Cl)c(Cl)c1 [Compound 68] | 101% | 212 to 223 °C | 
CCn1c(Oc2cccc(OC)c2)nnc1[C@@H](C)NS(=O)(=O)c1ccc(Cl)c(Cl)c1 [Compound 69] | 103% | 119 to 120.5 °C | ≥ 7.46
CCN(CC)c1cccc(Oc2nnc([C@@H](C)NS(=O)(=O)c3ccc(Cl)c(Cl)c3)n2CC)c1 [Compound 70] | 96.5% | 144 to 146 °C | ≥ 8.00
